Measurements from PubChem BioAssay (NCI).
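In this assay, cells in 96-well plates receive the compound at five concentrations for 48 hours. Endpoints are linearly interpolated between the surrounding concentrations. At the TGI there is no net growth.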

What was measured:
Assay in all cases: growth of human tumour cells (NCI), 48 h
[1] = tested on: SF-268 CNS
[2] = tested on: K-562 leukemia
[3] = tested on: CAKI-1 renal
[4] = tested on: HOP-62 NSCLC
[5] = tested on: HCC-2998 colon
[6] = tested on: NCI-H23 lung
[7] = tested on: TK-10 renal
[8] = tested on: COLO 205 colon
[9] = tested on: UACC-62 melanoma
[10] = tested on: OVCAR-8 ovarian
[11] = tested on: MALME-3M melanoma
[12] = tested on: 786-0 renal
[13] = tested on: SK-OV-3 ovarian
[14] = tested on: MCF7 breast
[15] = tested on: CCRF-CEM leukemia
[16] = tested on: NCI/ADR-RES ovarian
[17] = tested on: SW-620 colon
[18] = tested on: DU-145 prostate
[19] = tested on: SK-MEL-2 melanoma
[20] = tested on: SNB-19 CNS
[21] = tested on: NCI-H460 lung
[22] = tested on: SF-539 CNS
[23] = tested on: RXF 393 renal
[24] = tested on: NCI-H522 lung
[25] = tested on: RPMI-8226 leukemia
[26] = tested on: MDA-MB-435
[27] = tested on: KM12 colon
[28] = tested on: T-47D breast
[29] = tested on: OVCAR-3 ovarian
[30] = tested on: A549 NSCLC
[31] = tested on: UACC-257 melanoma
[32] = tested on: EKVX NSCLC
[33] = tested on: HL-60(TB) leukemia
[34] = tested on: SF-295 CNS
[35] = tested on: U251 CNS
[36] = tested on: HCT-116 colon
[37] = tested on: OVCAR-5 ovarian
[38] = tested on: HS 578T breast
[39] = tested on: M14 melanoma
[40] = tested on: BT-549 breast
[41] = tested on: HT29 colon
[42] = tested on: SK-MEL-28 melanoma
[43] = tested on: NCI-H226 lung
[44] = tested on: HCT-15 colon
[45] = tested on: SN12C renal
[46] = tested on: ACHN renal
[47] = tested on: PC-3 prostate
[48] = tested on: A498 renal
[49] = tested on: LOX IMVI melanoma
[50] = tested on: SR leukemia
[51] = tested on: UO-31 renal
[52] = tested on: IGROV1 ovarian
[53] = tested on: MDA-MB-231 breast
[54] = tested on: SK-MEL-5 melanoma
[55] = tested on: SNB-75 CNS
[56] = tested on: MOLT-4 leukemia
[57] = tested on: OVCAR-4 ovarian

Compound CCOC(=O)C(Br)(C(N)=O)C1(O)OC(c2ccccc2)=C(Br)C1=O (configuration not stated) has a TGI [1] of 41.5 µM, a TGI [2] of 53.7 µM and a TGI [3] of 40.1 µM. The TGI [4] was 81.2 µM, the TGI [5] was 35 µM and the TGI [6] was 53.7 µM. For the same compound, the TGI [7] was 33.3 µM, the TGI [8] was 30.7 µM and the TGI [9] was 92.9 µM. It also gave a TGI [10] of 33.3 µM, a TGI [11] of 55.6 µM and a TGI [12] of 41.9 µM. For the same compound, the TGI [13] was > 100 µM, the TGI [14] was 41 µM and the TGI [15] was 10.2 µM. For the same compound, the TGI [16] was > 100 µM, the TGI [17] was 43.1 µM and the TGI [18] was > 100 µM. The TGI [19] was > 100 µM, the TGI [20] was > 100 µM and the TGI [21] was > 100 µM. For the same compound, the TGI [22] was 32.3 µM, the TGI [23] was 34.4 µM and the TGI [24] was 11.7 µM. The TGI [25] was 27.7 µM, the TGI [26] was > 100 µM and the TGI [27] was > 100 µM. It also gave a TGI [28] of 59.6 µM, a TGI [29] of 55 µM and a TGI [30] of 66.8 µM. For the same compound, the TGI [31] was > 100 µM, the TGI [32] was 46.8 µM and the TGI [33] was > 100 µM. For the same compound, the TGI [34] was > 100 µM, the TGI [35] was 32.6 µM and the TGI [36] was 36.5 µM. For the same compound, the TGI [37] was 37 µM, the TGI [38] was > 100 µM and the TGI [39] was 62.9 µM. The TGI [40] was 34.3 µM, the TGI [41] was 39.3 µM and the TGI [42] was > 100 µM. For the same compound, the TGI [43] was 42.3 µM, the TGI [44] was 34.8 µM and the TGI [45] was 31.7 µM. For the same compound, the TGI [46] was 32.3 µM, the TGI [47] was 36.3 µM and the TGI [48] was > 100 µM. The TGI [49] was 46.1 µM, the TGI [50] was 41.3 µM and the TGI [51] was 44 µM. It also gave a TGI [52] of 43.5 µM, a TGI [53] of 33.6 µM and a TGI [54] of 60.2 µM.
With C[N+]1([O-])CCC(O)(C2CC2)CC1 (configuration not stated) the TGI [1] was > 100 µM, the TGI [2] was > 100 µM and the TGI [3] was > 100 µM. The TGI [4] was > 100 µM, the TGI [5] was > 100 µM and the TGI [6] was > 100 µM. The TGI [7] was > 100 µM, the TGI [8] was > 100 µM and the TGI [55] was > 100 µM. The TGI [9] was > 100 µM, the TGI [10] was > 100 µM and the TGI [11] was > 100 µM. The TGI [12] was > 100 µM, the TGI [13] was > 100 µM and the TGI [14] was > 100 µM. For the same compound, the TGI [15] was > 100 µM, the TGI [16] was > 100 µM and the TGI [17] was > 100 µM. For the same compound, the TGI [18] was > 100 µM, the TGI [19] was > 100 µM and the TGI [20] was > 100 µM. For the same compound, the TGI [23] was > 100 µM, the TGI [25] was > 100 µM and the TGI [26] was > 100 µM. The TGI [27] was > 100 µM, the TGI [56] was > 100 µM and the TGI [28] was > 100 µM. For the same compound, the TGI [29] was > 100 µM, the TGI [30] was > 100 µM and the TGI [31] was > 100 µM. For the same compound, the TGI [32] was > 100 µM, the TGI [33] was > 100 µM and the TGI [34] was > 100 µM. For the same compound, the TGI [35] was > 100 µM, the TGI [36] was > 100 µM and the TGI [37] was > 100 µM. For the same compound, the TGI [38] was > 100 µM, the TGI [39] was > 100 µM and the TGI [40] was > 100 µM. For the same compound, the TGI [41] was > 100 µM, the TGI [42] was > 100 µM and the TGI [43] was > 100 µM. The TGI [44] was > 100 µM, the TGI [45] was > 100 µM and the TGI [46] was > 100 µM. The TGI [47] was > 100 µM, the TGI [57] was > 100 µM and the TGI [49] was > 100 µM. For the same compound, the TGI [50] was > 100 µM, the TGI [51] was > 100 µM and the TGI [52] was > 100 µM. For the same compound, the TGI [53] was > 100 µM and the TGI [54] was > 100 µM.
